pIC50: −log10 of the molar value. Where a name gives a salt, the structure may show the parent alone.
target: T1, menin and MLL (menin, Flag tagged; biotinylated MLL1 peptide 1-46aa) (Homo sapiens, UniProt O00255); experiment: biochemical; conditions: IC50, binding inhibitory activity between menin and MLL, AlphaLISA; 1 nM menin, 10 nM biotinylated MLL1 peptide
T1 sequence (O00255 1-610): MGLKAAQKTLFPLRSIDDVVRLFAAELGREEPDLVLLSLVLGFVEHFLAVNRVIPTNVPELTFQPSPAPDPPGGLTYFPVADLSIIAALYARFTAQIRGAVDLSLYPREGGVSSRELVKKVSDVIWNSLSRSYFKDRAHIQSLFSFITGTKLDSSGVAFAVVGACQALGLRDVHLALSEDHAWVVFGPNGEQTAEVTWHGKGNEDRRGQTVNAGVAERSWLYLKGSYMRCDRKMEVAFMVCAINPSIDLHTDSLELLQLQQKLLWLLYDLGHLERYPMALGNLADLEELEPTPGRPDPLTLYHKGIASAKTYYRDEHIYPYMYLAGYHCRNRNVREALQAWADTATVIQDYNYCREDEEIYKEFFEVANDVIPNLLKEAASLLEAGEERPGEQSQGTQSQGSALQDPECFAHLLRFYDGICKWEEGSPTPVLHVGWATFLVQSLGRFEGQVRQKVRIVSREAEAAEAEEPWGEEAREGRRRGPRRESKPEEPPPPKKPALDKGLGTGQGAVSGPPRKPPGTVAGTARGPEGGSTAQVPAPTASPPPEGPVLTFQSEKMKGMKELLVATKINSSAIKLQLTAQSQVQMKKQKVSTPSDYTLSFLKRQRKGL
Description: Then, the fluorescence signal by AlphaLISA (registered trademark, PerkinElmer Co., Ltd.) was measured using a plate reader (PerkinElmer Co., Ltd., EnVisionXcite).

| Structure (SMILES) | pIC50 |
| --- | --- |
| CNc1nc(N(C)[C@H]2C[C@@H](NCc3ccc(-c4cnn(S(C)(=O)=O)c4)cc3)C[C@H]2O)c2cc(CC(F)(F)F)sc2n1 [Example 62, (1R,2S,4R)-4[({4[1-(methanesulfonyl)-1H-pyrazol-4-yl]phenyl}methyl)amino]-2-{methyl[2-(methylamino)-6-(2,2,2-trifluoroethyl)thieno[2,3-d]pyrimidin-4-yl]amino}cyclopentan-1-ol hydrochloride] | 8.70 |
| COc1cc(-c2ccc(CN[C@H]3CC[C@@H](N(C)c4ncnc5sc(CC(F)(F)F)cc45)C3)cc2)nnc1OC [Example 95, (1R,3S)-N^3-{[4-(5,6-dimethoxypyridazin-3-yl)phenyl]methyl}-N^1-methyl-N^1-[6-(2,2,2-(trifluoroethyl)thieno[2,3-d]pyrimidin-4-yl]cyclopentane-1,3-diamine hydrochloride] | 8.92 |
| COc1cc(-c2ccc(CN[C@H]3C[C@@H](OC)[C@@H](N(C)c4ncnc5sc(CC(F)(F)F)cc45)C3)cc2)nnc1OC [Example 127, (1R,3S,4R)—N^1-{[4-(5,6-dimethoxypyridazin-3-yl)phenyl]methyl}-4-methoxy-N^3-methyl-N^3-[6-(2,2,2-trifluoroethyl)thieno[2,3-d]pyrimidin-4-yl]cyclopentane-1,3-diamine Hydrochloride] | 8.80 |

same assay, conditions: cell free IC50 (nM), 1 nM menin, 10 nM biotinylated MLL1 peptide, AlphaLISA

| Structure (SMILES) | IC50 |
| --- | --- |
| Cc1c(CN[C@H]2CC[C@@H](N(C)c3ncnc4sc(CC(F)(F)F)cc34)C2)ccc2c1cc(C#N)n2Cc1cn[nH]c1 [Example 2, 4-methyl-5-({[(1S,3R)-3-{methyl[6-(2,2,2-trifluoroethyl)thieno[2,3-d]pyrimidin-4-yl]amino}cyclopentyl]amino}methyl)-1-[(1H-pyrazol-4-yl)methyl]-1H-indole-2-carbonitrile Hydrochloride] | 12.8 nM |
| CN(c1ncnc2sc(CC(F)(F)F)cc12)[C@@H]1CC[C@H](NCc2ccc(S(=O)(=O)N3CCCC(O)C3)cc2)C1 (mixture of isomers) [Example 57, l-[4-({[(1S,3R)-3-{methyl[6-(2,2,2trifluoroethyl)thieno[2,3-d]pyrimidin-4-yl]amino}cyclopentyl]amino}methyl)benzene-1-sulfonyl]piperidin-3-ol hydrochloride (diastereomer mixture)] | 61.2 nM |
| C=CS(=O)(=O)NCCCNC(=O)c1ccc(CN[C@H]2CC[C@@H](N(C)c3ncnc4sc(CC(F)(F)F)cc34)C2)cc1 [Example 34, N-{-3-[(ethenesulfonyl)amino]propyl}-4-({[(1S,3R)-3-{methyl[6-(2,2,2-trifluoroethyl)thieno[2,3-d]pyrimidin-4-yl]amino}cyclopentyl]amino}methyl)benzamide hydrochloride] | 413 nM |
| COc1cncc(-c2ccc(CN[C@H]3C[C@@H](Nc4ncnc5sc(CC(F)(F)F)cc45)C[C@@H](C(=O)N(C)C)C3)cc2)c1 (single isomer, unassigned) [Example 17A, Hydrochloride] | 2260 nM |
| CN(c1ncnc2sc(CC(F)(F)F)cc12)[C@@H]1CC[C@H](NCc2ccc(C(=O)NCc3cnn(C)c3)cc2)C1 [Example 49, N-[(1-methyl-1H-pyrazol-4-yl)methyl]-4-({[(1S,3R)-3-{methyl[6-(2,2,2-trifluoroethyl)thieno[2,3-d]pyrimidin-4-yl]amino}cyclopentyl]amino}methyl)benzamide hydrochloride] | 24 nM |
| CN(c1ncnc2sc(CC(F)(F)F)cc12)[C@@H]1CC[C@H](NCc2cnn(-c3ccccc3)c2)C1 [Example 32, (1R,3S)-N^1-methyl-N^3-[(1-phenyl-1H-pyrazol-4-yl)methyl]-N^1-[6-(2,2,2-trifluoroethyl)thieno[2,3-d]pyrimidin-4-yl]cyclopentane-1,3-diamine hydrochloride] | 94.9 nM |
| COc1cncc(-c2ccc(CN[C@H]3CC[C@@H](N(C)c4ncnc5sc(CC6CC6)cc45)C3)cc2)c1 [Example 9, (1R,3S)—N^1-[6-(cyclopropylmethyl)thieno[2,3-d]pyrimidin-4-yl]-N^3-{[4-(5-methoxypyridin-3-yl)phenyl]methyl}-N^1-methylcyclopentane-1,3-diamine Hydrochloride] | 22.2 nM |

Reference: patent publication US11236106B2, “Cycloalkane-1,3-diamine derivative” (Daiichi Sankyo Company, Limited, priority 2018, dated 2022)
